Data reported in article PMC10266688 (PLOS ONE, 2023).
Values joined by “and” are separate entries in the source; they are usually repeats but may differ in a detail not shown here. Equal entries are not always repeated.

Experiment: Single administration dose escalation study (MTD, body weight, clinical observations), female CD1 mice
Format: in vivo
Conditions: for Body weight change, Mean / Body weight change: day 7 vs initial weight; for Body weight change, Mean: group mean

N#Cc1ccc(/C=C2/C(=O)/C(=C/c3ccc(C#N)cc3)C23CCNCC3)cc1 [Up284]
Body weight, Mean (IP 40 mg/kg single dose, day 0, group mean): 24.20 g
Body weight (IP 40 mg/kg single dose, day 0, individual mice, 40 mg/kg): 25.6 g and 24.3 g and 22.7 g
Body weight, Mean (IP 40 mg/kg single dose, day 1, group mean): 22.83 g
Body weight (IP 40 mg/kg single dose, day 1, individual mice, 40 mg/kg): 23.9 g and 22.7 g and 21.9 g
Body weight, Mean (IP 40 mg/kg single dose, day 2, group mean): 22.97 g
Body weight (IP 40 mg/kg single dose, day 2, individual mice, 40 mg/kg): 23.3 g and 22.3 g
Body weight, Mean (IP 40 mg/kg single dose, day 3, group mean): 23.80 g
Body weight (IP 40 mg/kg single dose, day 3, individual mice, 40 mg/kg): 24.2 g and 24.5 g and 22.7 g
Body weight, Mean (IP 40 mg/kg single dose, day 4, group mean): 23.87 g
Body weight (IP 40 mg/kg single dose, day 4, individual mice, 40 mg/kg): 24.5 g and 24.6 g and 22.5 g
Body weight, Mean (IP 40 mg/kg single dose, day 5, group mean): 24.43 g
Body weight (IP 40 mg/kg single dose, day 5, individual mice, 40 mg/kg): 25.0 g and 25.1 g and 23.2 g
Body weight, Mean (IP 40 mg/kg single dose, day 6, group mean): 24.13 g
Body weight (IP 40 mg/kg single dose, day 6, individual mice, 40 mg/kg): 25.3 g and 24.6 g and 22.5 g
Body weight, Mean (IP 40 mg/kg single dose, day 7, group mean): 24.83 g
Body weight (IP 40 mg/kg single dose, day 7, individual mice, 40 mg/kg): 26.2 g and 24.5 g and 23.8 g
Body weight change, Mean (IP 40 mg/kg single dose): 2.67%
Body weight change (IP 40 mg/kg single dose, individual mice, 40 mg/kg): 2.34% and 0.82% and 4.85%
Clinical observation (IP 40 mg/kg, day 0, 0.5 h, individual mice): DPEh
Clinical observation (IP 40 mg/kg, day 0, 2 h, individual mice): HDPEh
Clinical observation (IP 40 mg/kg, day 0, 4 h, individual mice): HDPEh
Clinical observation (IP 40 mg/kg, day 0, 6 h, individual mice): DPEh
Clinical observation (IP 40 mg/kg, day 0, time 0, individual mice): 0
Clinical observation (IP 40 mg/kg, day 1, individual mice, 40 mg/kg): 0
Clinical observation (IP 40 mg/kg, day 2, individual mice): 0
Clinical observation (IP 40 mg/kg, day 3, individual mice): 0
Clinical observation (IP 40 mg/kg, day 4, individual mice): 0
Clinical observation (IP 40 mg/kg, day 5, individual mice): 0
Clinical observation (IP 40 mg/kg, day 6, individual mice): 0
Clinical observation (IP 40 mg/kg, day 7, individual mice): 0
Body weight, Mean (IP 60 mg/kg single dose, day 0, group mean): 24.00 g
Body weight (IP 60 mg/kg single dose, day 0, individual mice, 60 mg/kg): 24.4 g and 25.1 g and 22.5 g
Body weight (IP 60 mg/kg single dose, day 1, individual mice): died
Body weight change, Mean (IP 60 mg/kg single dose): -100.00%
Clinical observation (IP 60 mg/kg, day 0, 0.5 h, individual mice): DPEh
Clinical observation (IP 60 mg/kg, day 0, 2 h, individual mice): HDPEh
Clinical observation (IP 60 mg/kg, day 0, 4 h, individual mice): HDPEh
Clinical observation (IP 60 mg/kg, day 0, 6 h, individual mice): DPEh
Clinical observation (IP 60 mg/kg, day 0, time 0, individual mice): 0
Clinical observation (IP 60 mg/kg, day 1, individual mice): died
Body weight, Mean (IV 40 mg/kg single dose, day 0, group mean): 24.50 g
Body weight (IV 40 mg/kg single dose, day 0, individual mice, 40 mg/kg): 26.2 g and 23.2 g and 24.1 g
Body weight, Mean (IV 40 mg/kg single dose, day 1, group mean): 23.90 g
Body weight (IV 40 mg/kg single dose, day 1, individual mice, 40 mg/kg): 25.5 g and 22.6 g and 23.6 g
Body weight, Mean (IV 40 mg/kg single dose, day 2, group mean): 24.07 g
Body weight (IV 40 mg/kg single dose, day 2, individual mice, 40 mg/kg): 25.7 g and 22.4 g and 24.1 g
Body weight, Mean (IV 40 mg/kg single dose, day 3, group mean): 25.03 g
Body weight (IV 40 mg/kg single dose, day 3, individual mice, 40 mg/kg): 26.5 g and 23.6 g and 25.0 g
Body weight, Mean (IV 40 mg/kg single dose, day 4, group mean): 25.23 g
Body weight (IV 40 mg/kg single dose, day 4, individual mice, 40 mg/kg): 27.7 g and 22.9 g and 25.1 g
Body weight, Mean (IV 40 mg/kg single dose, day 5, group mean): 25.17 g
Body weight (IV 40 mg/kg single dose, day 5, individual mice, 40 mg/kg): 28.0 g and 23.0 g and 24.5 g
Body weight, Mean (IV 40 mg/kg single dose, day 6, group mean): 24.97 g
Body weight (IV 40 mg/kg single dose, day 6, individual mice, 40 mg/kg): 27.2 g and 22.6 g and 25.1 g
Body weight, Mean (IV 40 mg/kg single dose, day 7, group mean): 25.07 g
Body weight (IV 40 mg/kg single dose, day 7, individual mice, 40 mg/kg): 27.2 g and 23.2 g and 24.8 g
Body weight change, Mean (IV 40 mg/kg single dose): 2.24%
Body weight change (IV 40 mg/kg single dose, individual mice, 40 mg/kg): 3.82% and 0.00% and 2.90%
Clinical observation (IV 40 mg/kg, day 0, 2 h, individual mice): 0
Clinical observation (IV 40 mg/kg, day 0, 4 h, individual mice): 0
Clinical observation (IV 40 mg/kg, day 0, 6 h, individual mice): 0
Clinical observation (IV 40 mg/kg, day 0, time 0, individual mice): 0
Clinical observation (IV 40 mg/kg, day 1, individual mice): 0
Clinical observation (IV 40 mg/kg, day 2, individual mice): 0
Clinical observation (IV 40 mg/kg, day 3, individual mice): 0
Clinical observation (IV 40 mg/kg, day 4, individual mice): 0
Clinical observation (IV 40 mg/kg, day 5, individual mice): 0
Clinical observation (IV 40 mg/kg, day 6, individual mice): 0
Clinical observation (IV 40 mg/kg, day 7, individual mice): 0
Body weight, Mean (IV 60 mg/kg single dose, day 0, group mean): 24.43 g
Body weight (IV 60 mg/kg single dose, day 0, individual mice, 60 mg/kg): 26.0 g and 22.7 g and 24.6 g
Body weight, Mean (IV 60 mg/kg single dose, day 1, group mean): 24.47 g
Body weight (IV 60 mg/kg single dose, day 1, individual mice, 60 mg/kg): 26.7 g and 22.6 g and 24.1 g
Body weight, Mean (IV 60 mg/kg single dose, day 2, group mean): 24.77 g
Body weight (IV 60 mg/kg single dose, day 2, individual mice, 60 mg/kg): 27.1 g and 23.4 g and 23.8 g
Body weight, Mean (IV 60 mg/kg single dose, day 3, group mean): 24.73 g
Body weight (IV 60 mg/kg single dose, day 3, individual mice, 60 mg/kg): 26.5 g and 23.7 g and 24.0 g
Body weight, Mean (IV 60 mg/kg single dose, day 4, group mean): 24.93 g
Body weight (IV 60 mg/kg single dose, day 4, individual mice, 60 mg/kg): 26.6 g and 23.5 g and 24.7 g
Body weight, Mean (IV 60 mg/kg single dose, day 5, group mean): 24.83 g
Body weight (IV 60 mg/kg single dose, day 5, individual mice, 60 mg/kg): 26.5 g and 23.3 g and 24.7 g
Body weight, Mean (IV 60 mg/kg single dose, day 6, group mean): 25.30 g
